According to patent US8343963B2, “Sulfamoyl-phenyl-ureido compounds and their use as medicament” (4SC AG, priority 2009, dated 2013):
In brackets after ≈: the same amount, converted by molar mass. Where two headings read alike, the source gives them in different places.

Key:
[1] = In vitro clearance using human liver microsomes; assay type: in vitro ADME; details: human liver microsomes 0.5 mg/ml, 1 μM compound, 37° C., 0-30 min
Description: These experiments were performed at Nikem Research (Via Zambeletti 25; Baranzate, Milan, Italy). Test compounds in duplicate at the final concentration of 1 μM were dissolved in DMSO and pre-incubated for 10 min at 37° C. in phosphate buffer pH 7.4, 3 mM MgCl2, with human liver microsomes at the final concentration of 0.5 mg/ml. After the pre-incubation period, reaction was started by adding the cofactor mixture (NADP, Glc6P, G6P-DH); samples were taken at time 0, 5, 10, 15, 20 and 30 min and added to acetonitrile to quench the metabolic reaction, centrifuged and supernatant analysed and quantified by HPLC/MS. A control sample without cofactors was always added in order to check the chemical stability of test compounds. 7-ethoxycoumarin was added as reference standard. A fixed concentration of verapamil was added in every sample as internal standard for HPLC/MS. The concentration of the remaining compound at different times was determined by HPLC/MS. The rate constant, k (min^−1) derived for the exponential decay equation (peak area vs time) was used to calculate the rate of intrinsic clearance (Cli) of the compounds using the following equations: Cli (μl/min/mg compound)=k×V; where: V (μl/mg compound)=incubation volume/mg compound added. In table 3 the clearance (in vitro metabolic stability) classification was as follows: Cli<10=compound stable; Cli between 10 and 60=low metabolism; Cli between 60 and 600=medium metabolism Cli>600=high metabolism.

[2] = test system: multiresistant Dd2 strain of Plasmodium falciparum; assay: Antiplasmodial activity against Dd2 strain of Plasmodium falciparum ([8-3H]hypoxanthine incorporation); assay type: cell-based; details: 66 h, P. falciparum Dd2, 48 h + 18 h with [8-3H]hypoxanthine, 50% parasite growth inhibition, read-out: Antiplasmodia activity (IC50 class)
How it was run: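 Dd2 parasites at 0.3% parasitaemia and 2.5% haematocrit in RPMI 1640 with 10% human serum were exposed to 0.001–100 μM compound for 48 h. [8-3H]hypoxanthine was then added for a further 18 h and incorporation counted by scintillation. IC50 was fitted as 50% growth inhibition.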

[3] = Solubility and solubility-range determination in 50 mM phosphate buffer at different pH; assay type: physicochemical; details: aqueous buffer, kinetic from dmso stock, 1% DMSO, 23° C., read-out: Solubility or solubility range
Description: The compounds were dissolved in DMSO at a concentration of 20 mg/ml. These stock solutions were further diluted 1:1 with DMSO (50 μl solution+50 μl DMSO) in seven steps. Subsequently, these solutions were diluted 1:100 (5 μl DMSO-stock+495 μl 50 mM phosphate buffer) in all four pH buffers (respectively: pH=4; pH=6; pH=7.4; pH=9) resulting in a final DMSO concentration of 1% in the buffers. These dilutions were vigorously mixed and transferred into 96-well reading plate. The plates were incubated in a shaker (600 rpm) at 23° C. for 24 hours. After that, the contents of the wells were mixed with a pipette and optical density (OD) was recorded at wavelengths of 550 nm; 600 nm; 650 nm and 700 nm in the Tecan Sunrise plate reader. The cut-off OD sum for an undissolved concentration of a compound was defined as follows: Cut off OD sum=mean blank OD+0.050 OD. For the determination of the solubility range, the following rule was applied: OD>cut off=>compound not dissolved at this concentration OD<cut-off=>compound dissolved at this concentration For the determination of the solubility, a titration curve (OD/concentration) was prepared and the concentrations were determined based on the measured OD of the mixture supernatant after centrifugation. The solubility values are given in μg/ml (table 3).

| SMILES | solubility at 24 h ([3]; pH 4, 50 mM phosphate buffer) [µg/mL] | solubility at 24 h ([3]; pH 6, 50 mM phosphate buffer) [µg/mL] | solubility at 24 h ([3]; pH 7.4, 50 mM phosphate buffer) [µg/mL] | solubility at 24 h ([3]; pH 9, 50 mM phosphate buffer) [µg/mL] | In vitro metabolism as determined from Cli [1] | IC50 [2] [nM] |
| --- | --- | --- | --- | --- | --- | --- |
| CCC(=O)N1CCN(C(=N)c2cccc(NC(=O)Nc3ccc(S(=O)(=O)NCc4ccc(S(N)(=O)=O)cc4)cc3)c2)CC1 [Compound 58, 4-(3-(3-(imino(4-propionylpiperazin-1-yl)methyl)phenyl)ureido)-N-(4-sulfamoylbenzyl)benzenesulfonamide] | > 200 | > 200 | > 200 | > 200 | low (Cli between 10 and 60=low metabolism) | < 20 |
| CCCCN1CCN(C(=N)c2cccc(NC(=O)Nc3ccc(S(=O)(=O)NCc4ccc(S(N)(=O)=O)cc4)cc3)c2)CC1 [Compound 34, 4-(3-(3-((4-butylpiperazin-1-yl)(imino)methyl)phenyl)ureido)-N-(4-sulfamoylbenzyl)benzenesulfonamide] | 960 (≈ 1530 µM) | 960 (≈ 1530 µM) | 750 (≈ 1190 µM) | 540 (≈ 860 µM) | medium (Cli between 60 and 600=medium metabolism) | < 20 |
| COCCN1CCN(C(=N)c2cccc(NC(=O)Nc3ccc(S(=O)(=O)NCc4ccc(S(N)(=O)=O)cc4)cc3)c2)CC1 [Compound 69, 4-(3-(3-(imino(4-(2-methoxyethyl)piperazin-1-yl)methyl)phenyl)ureido)-N-(4-sulfamoylbenzyl)benzene sulfonamide] | – | – | – | – | medium (Cli between 60 and 600=medium metabolism) | 20 to 200 |

Second part, led by results:

| solubility at 24 h ([3]; pH 4, 50 mM phosphate buffer) [µg/mL] | solubility at 24 h ([3]; pH 6, 50 mM phosphate buffer) [µg/mL] | solubility at 24 h ([3]; pH 7.4, 50 mM phosphate buffer) [µg/mL] | solubility at 24 h ([3]; pH 9, 50 mM phosphate buffer) [µg/mL] | SMILES | In vitro metabolism as determined from Cli [1] | IC50 [2] [nM] |
| --- | --- | --- | --- | --- | --- | --- |
| > 200 | > 200 | > 200 | > 200 | CCCN1CCN(C(=N)c2cccc(NC(=O)Nc3ccc(S(=O)(=O)NCc4ccc(S(N)(=O)=O)cc4)cc3)c2)CC1 [Compound 38, 4-(3-(3-(imino(4-propylpiperazin-1-yl)methyl)phenyl)ureido)-N-(4-sulfamoylbenzyl)benzenesulfonamide] | medium (Cli between 60 and 600=medium metabolism) | < 20 |
| > 200 | > 200 | > 200 | > 200 | N=C(c1cccc(NC(=O)Nc2ccc(S(=O)(=O)NCc3ccc(S(N)(=O)=O)cc3)cc2)c1)N1CCNCC1 [Compound 52, 4-(3-(3-(imino(piperazin-1-yl)methyl)phenyl)ureido)-N-(4-sulfamoylbenzyl)benzenesulfonamide] | low (Cli between 10 and 60=low metabolism) | 20 to 200 |
| 1480 (≈ 2350 µM) | 1290 (≈ 2040 µM) | 763 (≈ 1210 µM) | 456 (≈ 724 µM) | COC(=O)N1CCN(C(=N)c2cccc(NC(=O)Nc3ccc(S(=O)(=O)NCc4ccc(S(N)(=O)=O)cc4)cc3)c2)CC1 [Compound 60, methyl 4-(imino(3-(3-(4-(N-(4-sulfamoylbenzyl)sulfamoyl)phenyl)ureido)phenyl)methyl)piperazine-1-carboxylate] | medium (Cli between 60 and 600=medium metabolism) | < 20 |
